# pEC50: −log10 of the molar value.
# How the values were obtained:
# [1] = tested on: Methicillin resistant S. aureus (ATCC 33591); assay: microbe, parasite or virus in culture; type: cell-based
# Description: For solid media, about 5% agar was used along with above mentioned composition. […] VSE and VRE were cultured in Brain Heart Infusion broth (Himedia). […] The 6 h grown culture was diluted to give effective cell concentration of about 10^5 cfu/mL which was then used for determining MIC.
# About 50 μL of these serial dilutions were added to the wells of 96 well plate followed by the addition of about 150 μL of bacterial solution. […] Each concentration had triplicate values and the whole experiment was done at least twice and the MIC value was determined by taking the average of triplicate O. D. values for each concentration and plotting it against concentration. The data was then subjected to sigmoidal fitting.
# [2] = tested on: Vancomycin restant S. aureus (Clinical isolate, MMC-20, VanA & VanB); assay: MIC, broth dilution method in Mueller-Hinton broth; type: cell-based; settings: VRSA
# Description: For vancomycin resistant staphylococcus aureus (VRSA; clinical isolate MMC-20), the MIC of compounds was determined by broth dilution method using Mueller-Hinton broth (MHB), as recommended by the National Committee for Clinical Laboratory Standards. About 5×10^4 bacterial cells in MHB culture were treated with different concentrations of compounds, and shaken for 16 h at 37° C. The minimum concentration at which there was no visible turbidity was taken as the MIC of that compound.
# MSSA [3] = assay: MBC by plating; type: cell-based, S. aureus; settings: against MSSA
# Description: (§1) All cationic antibacterial compounds and control (vancomycin) were assayed in a micro-dilution broth format. Stock solutions were made by serially diluting the compounds using autoclaved Millipore water or broth media. The antibacterial activity of the compounds was determined against Methicillin sensitive S. aureus (MSSA), Methicillin resistant S. aureus (MRSA), vancomycin sensitive Enterococcus faecium (VSE), vancomycin resistant Enterococcus faecium (VRE), and E. coli. Bacteria, to be tested, were grown for about 10 h in the suitable media, MSSA and MRSA were grown in Yeast-dextrose broth (about 1 g of beef extract, about 2 g of yeast extract, about 5 g of peptone and about 5 g of NaCl in about 1000 mL of sterile distilled water (pH-7)). For solid media, about 5% agar was used along with above mentioned composition. E. coli was cultured in Luria Bertani broth (about 10 g of tryptone, about 5 g of yeast extract, and about 10 g of NaCl in 1000 mL of sterile distilled water, pH −7). VSE and VRE were cultured in Brain Heart Infusion broth (Himedia). The bacterial samples were freeze dried and stored at about −80° C. About 5 μl of these stocks were added to about 3 ml of the nutrient broth and the culture was grown for about 6 h at about 37° C. prior to the experiments. This 6 h grown culture gives about 10^9 cfu/mL for MSSA and MRSA, while it was about 10^8 cfu/mL for E. coli, 10^9 cfu/mL for both VSE and VRE and this was determined by spread plating method. The 6 h grown culture was diluted to give effective cell concentration of about 10^5 cfu/mL which was then used for determining MIC.
# (§2) Compounds were serially diluted, in sterile water (2 fold dilution is employed) in a way that the working concentration was about 10 μM for MSSA MRSA, and VSE while for VRE and E. coli it was about 100 μM. About 50 μL of these serial dilutions were added to the wells of 96 well plate followed by the addition of about 150 μL of bacterial solution. The plates were then incubated at about 37° C., 150 rpm in the incubator and O.D at 600 nm was recorded at an interval of about 10 h and about 24 h using TECAN (Infinite series, M200 pro) Plate Reader. Each concentration had triplicate values and the whole experiment was done at least twice and the MIC value was determined by taking the average of triplicate O. D. values for each concentration and plotting it against concentration. The data was then subjected to sigmoidal fitting. From the curve the MIC value was determined, as the point in the curve where the O.D. was similar to that of control having no bacteria.
# (§3) MBC values were determined by plating about 50 μl of the solution and later counting the colonies after their development.
# E. coli [4] = assay: MIC, micro-dilution broth; type: cell-based
# Description: as §1, §2
# [5] = tested on: Methicillin sensitive S. aureus (MTCC 737); assay: MIC, micro-dilution broth; type: cell-based
# Description: as §1, §2
# [6] = tested on: Vancomycin resistant E. faecium (VanA, ATCC 51559); assay: MIC, micro-dilution broth; type: cell-based
# Description: as §1, §2
# [7] = tested on: Vancomycin sensitive E. faecium (ATCC 19634); assay: MIC, micro-dilution broth; type: cell-based
# Description: as §1, §2
# E. coli [8] = assay: MBC by plating; type: cell-based
# Description: as §1, §2, §3
# MRSA [9] = assay: MBC by plating; type: cell-based, S. aureus; settings: Staphylococcus aureus; against MRSA
# Description: as §1, §2, §3
# MRSA [10] = assay: Time-kill assay; type: cell-based, S. aureus; settings: 1×MIC, 6×MIC, 12×MIC, 0-3 h
# Description: The bactericidal activity was assessed by the kinetics or the rate at which it affects the killing action of the compound. Briefly MRSA grown in Yeast-Dextrose broth. […] Bacterial suspension containing specified concentrations of the compound along with negative control (which contains only 0.9% Saline) was incubated at 37° C. with shaking. Aliquots (20 μl) were removed from the cultures at 0, 1, 2 and 3 h and were serially diluted 10-fold in 0.9% saline and plated onto sterile Yeast-Dextrose agar medium. The number of viable cells was determined by plating the 10-fold serial dilution of each sample onto Yeast-dextrose agar medium. Plates were then incubated for 24 h at 37° C., CFU was counted and the total bacterial log10 CFU/ml was determined.
# MSSA [11] = assay: Cytoplasmic membrane depolarization assay (diSC3(5)); type: cell-based, S. aureus; settings: concentration as high as 40 μM
# Description: Midlog phase bacterial cells were harvested, washed with about 5 mM HEPES and about 5 mM glucose and resuspended in about 5 mM glucose, about 5 mM HEPES buffer and about 100 mM KCl solution in 1:1:1 ratio (about 10^8 cfu/ml). Measurements were made in a cuvette containing about 2 ml of bacterial suspension and about 2 μM diSC3(5). The fluorescence of the dye was monitored for about 10 min (MSSA) to about 20 min (E. coli) at R.T. spectrofluorometer at excitation wavelength of about 622 nm and emission wavelength of about 670 nm. Dye uptake, and resultant self quenching, was modulated by the membrane potential. After reaching the maximum uptake of the dye by bacteria, which was indicated by a minimum in dye fluorescence, (after about 10 min for S. aureus and about 20 min for E. coli) compounds (4 and 7) and control were added to the cells, and the decrease in potential was monitored by the increase in fluorescence for further about 10 min.
# [12] = tested on: Human Red Blood Cells (RBC); assay: Hemolytic assay; type: cell-based; settings: Erythrocyte, 1 h, about one hour at about 37° C., read-out: EC50 (hemolysis)
# Description: Fresh human blood was collected under aseptic conditions in heparinised vacutainers. vancomycin derivatives are serially diluted, in sterile water (about 2 fold dilution is employed) in a way that the working concentration is about 100 μM. Heparinised blood was centrifuged down at about 3500 rpm for about 5 min in order to separate Red Blood Cells and blood plasma. RBC's are then washed couple of times with PBS pH-7.4 and suspended in PBS such that the final concentration of RBC was about 5 vol %. About 150 μL of this is mixed with about 50 μL of serially diluted compound in 96 well plate. The plate was then incubated at about 37° C. for about one hour. Later, the plate was centrifuged down at about 3500 rpm for about 5 min. The lysed RBC releases haemoglobin which was present in the supernatant. The supernatant thus was pipetted out into another fresh 96 well plate and the absorbance was measured at about 540 nm.
# Percentage of hemolysis was determined as (A−A0)/(Atotal−A0)×100, where A is the absorbance of the test well, A0 the absorbance of solution without compound, and Atotal the absorbance of 100% hemolysis wells (with Triton X-100), all at 540 nm.
# Cytotoxicity assay (MTT) = type: cell-based; settings: human, HeLa cells (cervical cancer cells), about 24 h
# Description: Cytotoxity of compounds 4 and 7 was determined against HeLa cell line following well known MTT assay. Cells were grown in DMEM at about 37° C. in a humidified-air atmosphere (about 5% CO2/95% air) in DMEM complete medium, supplemented with about 10% heat inactivated Fetal Bovine Serum and about 100 units/mL penicillin G, about 100 µg/mL streptomycin. Cells were seeded into 96 well plate and kept under the above mentioned conditions till they attained about 80% confluency. Compounds were serially diluted, in sterile water (2 fold dilution is employed) in a way that the working concentration was 100 μM. 50 μL of these dilutions were added to the cells and the volume was made up to 200 μL using DMEM medium. Cells were kept under observation for about 24 h. Later the medium was removed, cells were washed thoroughly with PBS and about 100 μL of MTT solution (about 5 mg/mL) was added to the wells. After about 3 h the MTT was removed, cells were lysed using DMSO and the plate was read at about 570 nm. One containing no compound (untreated cell) and other with about 10 vol % Triton-X 100 solution were also used. Percentage of cell survival was calculated using the formula: (Atreated cells−Atriton-X cells)/(Auntreated cell−Atriton-X cells)×100
# A plot of % of survival against concentration of compound was plotted using Origin Pro software.
smiles,measurement,setting,value
CN[C@H](CC(C)C)C(=O)N[C@H]1C(=O)N[C@@H](CC(N)=O)C(=O)N[C@H]2C(=O)N[C@H]3C(=O)N[C@H](C(=O)N[C@H](C(=O)NCCCN(C)C)c4cc(O)cc(O)c4-c4cc3ccc4O)[C@H](O)c3ccc(c(Cl)c3)Oc3cc2cc(c3O[C@@H]2O[C@H](CO)[C@@H](O)[C@H](O)[C@H]2O[C@H]2C[C@](C)(N)[C@H](O)[C@H](C)O2)Oc2ccc(cc2Cl)[C@H]1O [Compound 1],MIC,"[1]; MRSA, ATCC 33591",0.61 µM
same,MIC,[2]; clinical isolate MMC-20,0.53 µM
same,MBC,MSSA [3],1.25 µM
same,MIC,E. coli [4]; against E. coli,50 µM
same,MIC,"[5]; MSSA, S. aureus MTCC 737",0.62 µM
same,MIC,"[6]; VRE, E. faecium VanA ATCC 51559",>100 µM
same,MIC,"[7]; VSE, E. faecium ATCC 19634",0.63 µM
same,MBC,E. coli [8]; against E. coli,50 µM
"CCCCCCCCCCCCCC[N+](C)(C)CCCNC(C)=O [Compound 14, N′-Acetyl N-tetradecyl N,N dimethyl 1,3 propanediamine]",MIC,E. coli [4]; against E. coli,>100 µM
same,MBC,E. coli [8]; against E. coli,>100 µM
CN[C@H](CC(C)C)C(=O)N[C@H]1C(=O)N[C@@H](CC(N)=O)C(=O)N[C@H]2C(=O)N[C@H]3C(=O)N[C@H](C(=O)N[C@H](C(=O)O)c4cc(O)cc(O)c4-c4cc3ccc4O)[C@H](O)c3ccc(c(Cl)c3)Oc3cc2cc(c3O[C@@H]2O[C@H](CO)[C@@H](O)[C@H](O)[C@H]2O[C@H]2C[C@](C)(N)[C@H](O)[C@H](C)O2)Oc2ccc(cc2Cl)[C@H]1O [Vancomycin],MIC,"[1]; Staphylococcus aureus, ATCC 33591 / MRSA",0.63 µM
same,MIC,[2]; Staphylococcus aureus,> 86 µM
same,MBC,MRSA [9],2.5 µM
same,MBC,"MSSA [3]; Staphylococcus aureus, MSSA",~2.5 µM
same,MBC,MSSA [3]; listed as Control,2.5 µM
same,MIC,E. coli [4]; Escherichia coli,80 to 100 µM
same,MIC,"[5]; Staphylococcus aureus, MSSA / MTCC737",0.63 µM
same,MIC,"[6]; Enterococcus faecium, ATCC 51559 / VRE",> 100 µM
same,MIC,"[7]; Enterococcus faecium, ATCC19634",0.6 µM
same,MBC,E. coli [8]; Escherichia coli,> 100 µM
same,MBC,"E. coli [8]; against E. coli, listed as Control",>100 µM
same,killing kinetics (in words),MRSA [10],relatively slow killing or bacteriostatic effect
same,membrane depolarization,MSSA [11],remained ineffective
same,pEC50,[12],< 4.00
same,EC50 at 24 h,Cytotoxicity assay (MTT),> 100 µM

# From patent US10081655B2, “Cationic antibacterial composition” (priority 2011, dated 2018)
